PubChem BioAssay AID720512 (Broad Institute, 2013)
Calls of active or inactive are those of the source. How the calls were made is not given here.

Target: Toxin B (TcdB) glycohydrolase, Clostridioides difficile 630
Assay: TcdB glycohydrolase inhibitors, dose response, biochemical, cherry-pick, plate reader (AID 720512)
Conditions: recombinant TcdB glycohydrolase activity

| Structure (SMILES) | activity change, negative = inhibition (at 19.5 µM (top of the series)) | further results |
| --- | --- | --- |
| COc1cccc(C(=O)C2CCCN(Cc3ccc(F)cc3)C2)c1 (centres undefined) | inactive | – |
| COCC#Cc1ccc2c(c1)O[C@H](CN(C)C(=O)CC1CC1)[C@@H](C)CN([C@H](C)CO)S2(=O)=O | inactive | – |
| COc1ccc(-c2ccc3c(c2)[C@@H]2[C@@H](CCN2C(=O)CN2CCOCC2)[C@H](CO)N3)cc1 | inactive | – |
| CN(CCN1CCOCC1)C(=O)CC1C(=O)NCCN1Cc1ccccc1C(F)(F)F (centres undefined) | inactive | – |
| CCOc1ccccc1/C=C/c1onc(C)c1S(=O)(=O)N1CCC(C(=O)N2CCCCCC2)CC1 | inactive | – |
| CN(C)c1ccc(C(=S)N2CCN(C(=S)Nc3ccc(Cl)cc3)CC2)cc1 | inactive | – |
| COc1cc(/C=N/NC(=O)c2c(C)nc3ccc(Cl)cn23)cc(OC)c1OC | inactive | – |
| O=c1[nH][nH]c(=O)c2c1[nH]c(=S)n2Cc1ccccc1 | inactive | – |
| Cc1nc(S(=O)(=O)N(C)Cc2ccccc2)c(C#N)c(C)c1Cl | inactive | – |
| CC(C)Cc1cc(C(=O)N2CCCC(CO)(Cc3ccc(F)cc3)C2)no1 (centres undefined) | inactive | – |
| CCn1c(SCC(=O)OC)nnc1-c1ccccc1 | inactive | – |
| CSc1ccccc1NC(=O)C1=CC(c2ccc(C)cc2)=NS(=O)(=O)N1C | inactive | – |
| CCNC(=O)C[C@H]1CC[C@@H]2[C@@H](COc3ccc(NC(=O)c4ccc5c(c4)OCO5)cc3C(=O)N2C)O1 | – | AC50: > 39 µM (inactive) |
| CCNC(=O)C[C@@H]1CC[C@H]2[C@@H](COc3ccc(NC(C)=O)cc3C(=O)N2C)O1 | – | activity change, negative = inhibition (at 21 µM (top of the series)): inactive |
| Cc1cccc(/C=C/c2onc(C)c2S(=O)(=O)N2CCC(C(=O)N3CCCCCC3)CC2)c1 | inactive | – |
| CNC(=O)C1CCN(S(=O)(=O)c2c(C)noc2/C=C/c2cccc(C)c2)CC1 | inactive | – |
| CC(=O)c1cccc(OCC(=O)c2cc(C)n(-c3cc(C)on3)c2C)c1 | inactive | – |
| COc1cc(/C=C(\C#N)C(=O)N2CCCCC2)ccc1O | inactive | – |
| CCOc1ccccc1/C=C/c1onc(C)c1S(=O)(=O)N1CCC(C(=O)N(CC)CC)CC1 | inactive | – |
| Cc1noc(C)c1NC(=O)N(C)C[C@@H]1Oc2ccc(NC(=O)C3CCCCC3)cc2C(=O)N([C@@H](C)CO)C[C@H]1C | inactive | – |
| C=CCNc1n[nH]c(=S)s1 | inactive | – |
| Cc1ccc(S(=O)(=O)N2CCCC2C(=O)Nc2ccc(O)cc2)cc1 (centres undefined) | inactive | – |
| O=C(CN1C(=O)NC2(CCCc3ccccc32)C1=O)NCc1cccs1 (centres undefined) | inactive | – |

| Structure (SMILES) | activity change, negative = inhibition (at 19.5 µM (top of the series)) | further results |
| --- | --- | --- |
| O=C(CC(c1ccccc1)c1ccccc1)Nc1ccc(O)cc1 | inactive | – |
| CCOC(=O)[C@H]1[C@H]2COc3ccc(OC)cc3[C@@H]2N2C(=O)CN(Cc3ccc(Cl)cc3)C(=O)[C@@]12C | inactive | – |
| CCOC(=O)Cn1c(C(F)(F)F)nc2nc(Cl)c(Cl)nc21 | inactive | – |
| COc1ccc(C2=NS(=O)(=O)N(C)C(C(=O)N3CCN(C)CC3)=C2)cc1 | inactive | – |
| Cc1ccc2ccc[n+](Cc3ccccc3)c2c1 | inactive | – |
| CN(c1ccc(O)cc1)c1nc(-c2cccnc2)cs1 | inactive | – |
| CNC(=O)C[C@H]1CC[C@@H]2[C@@H](COc3ccc(NC(=O)c4cccc(OC)c4)cc3C(=O)N2C)O1 | inactive | – |
| CCOC(=O)N1CCN=C1SCc1ccc(Cl)c(Cl)c1 | inactive | – |
| CC(=O)C[C@H]1c2ccccc2S(=O)(=O)N1C1CCCCC1 | inactive | – |
| COc1cc2[nH]c(=S)n(Cc3cccs3)c(=O)c2cc1OC | inactive | – |
| Oc1ccc2ccc3[nH]cnc3c2c1 | – | AC50: > 39 µM (inactive) |
| O=C(COc1ccc(/C=N/NC(=O)c2ccc(O)cc2)cc1)Nc1cccc([N+](=O)[O-])c1 | inactive | – |
| COc1ccc(-c2nc3ccc([N+](=O)[O-])cc3[nH]2)cc1 | inactive | – |
| COCC(=O)N1CC[C@@H]2[C@@H](CO)N(C)c3ccc(-c4ccccc4)cc3[C@@H]21 | inactive | – |
| CCCNC(=O)C1(C)CCCN(C(=O)c2ccccc2OC(F)(F)F)C1 (centres undefined) | inactive | – |
| COc1ccc(/C=C(/C#N)C(=O)Nc2ccc(O)cc2)cc1C(=O)O | – | AC50: > 39 µM (inactive) |
| CC(C)OC(=O)c1cccc(C(=O)O)n1 | inactive | – |
| O=[N+]([O-])c1cc(Br)ccc1NS(=O)(=O)c1ccccc1 | inactive | – |
| ClCC(CNCc1ccccc1)c1ccccc1 (centres undefined) | inactive | – |
| Cc1ccc2sc(NNC(=O)C3COc4ccccc4O3)nc2c1C (centres undefined) | inactive | – |
| Fc1ccccc1Nc1n[nH]c(=S)s1 | inactive | – |
| Cc1ccc(C)c2sc(NC(=O)c3ccc(N4C(=O)CCC4=O)cc3)nc12 | inactive | – |
| Oc1ccc(Nc2nc(Cl)nc(NCc3ccco3)n2)cc1 | – | AC50: 21.7 µM |

| Structure (SMILES) | activity change, negative = inhibition (at 19.5 µM (top of the series)) | further results |
| --- | --- | --- |
| COc1cc(/C=N/Nc2nc3ccccc3[nH]2)ccc1O | inactive | – |
| COCC(=O)N1CC[C@@H]2[C@H]1c1cc(-c3ccc(OC)cc3)ccc1N(C)[C@H]2CO | – | AC50: > 39 µM (inactive) |
| C[C@H](NC(=O)c1cc2c(cn1)[nH]c1ccccc12)C(=O)O | inactive | – |
| c1ccc(-c2nnc(OCC3CCCO3)c3ccccc23)cc1 (centres undefined) | inactive | – |
| COc1ccc(CNC(=O)C2=CC(c3ccc(OC)c(OC)c3)=NS(=O)(=O)N2C)cc1 | inactive | – |
| COc1cc(/C=C/C(=O)OCC(=O)NCc2ccco2)ccc1O | inactive | – |
| CNC(=O)C1CCN(S(=O)(=O)c2c(C)noc2/C=C/c2ccc(C)cc2)CC1 | inactive | – |
| O=C(Nc1ccc(O)cc1)c1ccc2c(c1)C(=O)N(Cc1ccco1)C2=O | inactive | – |
| Cc1ccc(C(=O)Nc2scc(-c3ccccc3)c2C(=O)O)cc1 | – | AC50: > 39 µM (inactive) |
| O=C(NNc1nc2c(F)cccc2s1)C1COc2ccccc2O1 (centres undefined) | inactive | – |
| CCC(=O)N1CC[C@@H]2[C@H]1c1cc(-c3ccccc3)ccc1N(C)[C@H]2CO | – | AC50: > 42 µM (inactive) |
| O=C(N/C(=C\c1ccc(O)cc1)C(=O)N1CCCCC1)c1ccccc1 | inactive | – |
| CN(C)CCCNC(=O)C[C@H]1CC[C@@H]2[C@@H](COc3ccc(NC(=O)c4ccc5c(c4)OCO5)cc3C(=O)N2C)O1 | inactive | – |
| COc1ccc(Cl)cc1NC(=S)NC1CCCC1 | inactive | – |
| COc1ccc(Cl)cc1-n1c(=S)sc2c(=O)n(-c3ccc(F)cc3)c(SCC(=O)O)nc21 | inactive | – |
| O=C(NC(=S)Nc1ccc(O)cc1)c1cncc(Br)c1 | inactive | – |
| Cc1cc2c(cc1S(=O)(=O)N(C)c1ccccc1)NC(=O)CO2 | inactive | – |
| O=C(Cc1ccccn1)c1ccncc1 | inactive | – |
| CCCCn1c(CN2CCN(C(=O)c3ccco3)CC2)nc2c1c(=O)n(C)c(=O)n2C | inactive | – |
| c1ccc(OCCSc2nnc3sc4ccccc4n23)cc1 | – | AC50: > 39 µM (inactive) |
| Cc1ccc(S(=O)(=O)/N=C(/Nc2cccc(O)c2)c2ccccc2)cc1 | inactive | – |
| CCn1c(C)nc2cc(C(=O)N/N=C/c3ccc(OC)c(O)c3)ccc21 | – | AC50: > 39 µM (inactive) |
| O=C1Cc2cc(S(=O)(=O)NCc3ccccc3Cl)cc3c2N1CCC3 | inactive | – |

| Structure (SMILES) | activity change, negative = inhibition (at 19.5 µM (top of the series)) | further results |
| --- | --- | --- |
| COc1cc(-c2n[nH]c(=S)n2/N=C/c2cccn2C)cc(OC)c1OC | inactive | – |
| CCN(CCN(C)C)C(=O)C1CCN(S(=O)(=O)c2c(C)noc2/C=C/c2ccccc2F)CC1 | inactive | – |
| COc1ccc(C=NNC(=O)c2cc(C)oc2C)cc1O | inactive | – |
| CCCc1cc(=O)oc2c3c(cc(OCC(=O)NCCCn4ccnc4)c12)OC(C)(C)CC3 | inactive | – |
| COc1ccc(-c2ccc3c(c2)[C@@H]2[C@@H](CCN2C(=O)C2CC2)[C@H](CO)N3C)cc1 | inactive | – |
| COc1cc(Cc2ccc(N)c(OC)c2)ccc1N | inactive | – |
| CCOc1ccc(S(=O)(=O)NCCC(=O)NCc2ccccn2)cc1 | inactive | – |
| O=C(C1CCOCC1)N1CC[C@@H]2[C@@H](CO)Nc3ccc(-c4ccc(F)cc4)cc3[C@@H]21 | inactive | – |
| Cc1cccn2c(CN(C)C3CCCc4ccccc43)c(C(=O)N3CCOCC3)nc12 (centres undefined) | inactive | – |
| Nc1ccc2c(c1)Nc1ccccc1CC2 | inactive | – |
| COc1cccc(C(=O)OCC(=O)Nc2cc(C)on2)c1OC | inactive | – |
| Cc1cccc(/C=C/c2onc(C)c2S(=O)(=O)N2CCC(C(=O)NC(C)C)CC2)c1 | inactive | – |
| C/C(=N\NC(=O)c1ccccc1O)c1cccc(NC(=O)c2ccccc2)c1 | inactive | – |
| COc1ccc(C(=O)NC(CC(=O)O)c2cc([N+](=O)[O-])ccc2Cl)c(SC)c1 (centres undefined) | inactive | – |
| CCOc1ccccc1/C=C/c1onc(C)c1S(=O)(=O)N1CCC(C(=O)NC)CC1 | – | AC50: > 39 µM (inactive) |
| COc1ccc(CNC(=O)C2=CC(c3ccc(OC)cc3)=NS(=O)(=O)N2C)cc1 | inactive | – |
| C/C(=N\OCC(=O)Nc1nc2ccccc2s1)c1ccccc1 | inactive | – |
| Cc1nc(SCC(=O)N2CCNC2=O)c(C#N)c(C)c1C | inactive | – |
| COc1ccc(-c2cnc3c(c2)C(=O)N([C@@H](C)CO)C[C@H](C)[C@H](CN(C)C(=O)C2CCCCC2)O3)cc1 | inactive | – |
| O=C(O)C1C(=O)NCC1c1ccccc1 (centres undefined) | inactive | – |
